Measured values published in patent publication US7582667B2, “Dihydrospiro[dibenzo[a,d][7]annulene-5,4′-imidazol] compounds for the inhibition of beta-secretase” (Wyeth, priority 2006, dated 2009).

Experiments:
human BACE1 = human BACE1 (Homo sapiens, UniProt P56817); assay: Fluorescent kinetic assay, BACE-1 binding affinity (peptide substrate WABC-6 cleavage); type: biochemical; details: 10 nM enzyme, 25 μM substrate WABC-6, Na-Acetate pH 4.5, room temperature
Procedure: Evaluation of BACE-1 Binding Affinity of Test Compounds
Fluorescent Kinetic Assay
Final Assay Conditions: 10 nM human BACE1 (or 10 nM Murine BACE1), 25 μM substrate (WABC-6, MW 1549.6, from AnaSpec), Buffer: 50 mM Na-Acetate, pH 4.5, 0.05% CHAPS, 25% PBS, room temperature. Na-Acetate was from Aldrich, Cat. #24, 124-5, CHAPS was from Research Organics, Cat. #1304C 1X, PBS was from Mediatech (Cellgro), Cat#21-031-CV, peptide substrate Abz[…]pa was from AnaSpec, Peptide Name: WABC-6 Determination of stock substrate (Abz[…]pa) concentration: ˜25 mM stock solution is made in DMSO using the peptide weight and MW, and diluted to ˜25 μM (1:1000) in 1×PBS. Concentration is determined by absorbance at 354 nm using an extinction coefficient ε of 18172 M^−1cm^−1, the concentration of stock substrate is corrected, and the substrate stock stored in small aliquots in −80° C. […] Determination of Stock Enzyme Concentration: the stock concentration of each enzyme is determined by absorbance at 280 nm using ε of 64150 M^−1cm^−1 for hBACE1 and MuBACE1 in 6 M Guanidinium Hydrochloride (from Research Organics, Cat. # 5134G-2), pH ˜6. The extinction coefficient ε^280 nm for each enzyme was calculated based on known amino acid composition and published extinction coefficients for Trp ([…]) and Tyr ([…]) residues (Anal. Biochem. 182, 319-326). Dilution and mixing steps: total reaction volume: 100 μL
2× inhibitor dilutions in buffer A (66.7 mM Na-Acetate, pH 4.5, 0.0667% CHAPS) were prepared,
4× enzyme dilution in buffer A (66.7 mM Na-Acetate, pH 4.5, 0.0667% CHAPS) were prepared,
100 μM substrate dilution in 1× PBS was prepared, and
50 μL 2× Inhibitor, 25 μL 100 μM substrate are added to each well of 96-well plate (from DYNEX Technologies, VWR #: 11311-046), immediately followed by 25 μL 4× enzyme (added to the inhibitor and substrate mix), and the fluorescence readings are initiated.
Fluorescence Readings: Readings at λex 320 nm and λem 420 nm are taken every 40 sec for 30 min at room temperature and the linear slope for substrate cleavage rate (vi) determined.
Calculation of % Inhibition: % Inhibition=100*(1−vi/v0) • vi: substrate cleavage rate in the presence of inhibitor • v0: substrate cleavage rate in the absence of inhibitor • IC50 Determination: % Inhibition=((B*IC50^n)+(100*I0^n))/(IC50^n+I0^n) (Model #39 from LSW Tool Bar in Excel where B is the % inhibition from the enzyme control, which should be close to 0.) % Inhibition is plotted vs. Inhibitor Concentration (I0) and the data fit to the above equation to obtain IC50 value and Hill number (n) for each compound.

Chain of human BACE1 (P56817 46-501): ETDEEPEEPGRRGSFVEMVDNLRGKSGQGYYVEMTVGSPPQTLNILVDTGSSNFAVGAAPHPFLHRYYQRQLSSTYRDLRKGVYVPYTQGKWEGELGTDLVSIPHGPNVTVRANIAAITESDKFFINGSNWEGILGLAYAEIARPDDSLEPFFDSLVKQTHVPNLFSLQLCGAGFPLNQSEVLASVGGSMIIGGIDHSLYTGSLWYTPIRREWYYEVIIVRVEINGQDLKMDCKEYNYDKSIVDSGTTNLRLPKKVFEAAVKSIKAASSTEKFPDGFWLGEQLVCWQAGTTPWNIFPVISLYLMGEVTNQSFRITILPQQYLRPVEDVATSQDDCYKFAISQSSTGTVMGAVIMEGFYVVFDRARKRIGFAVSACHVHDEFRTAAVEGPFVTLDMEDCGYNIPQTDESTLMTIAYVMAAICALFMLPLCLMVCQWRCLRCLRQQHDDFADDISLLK

| Compound | IC50 (human BACE1) [µM] | melting point [°C] |
| --- | --- | --- |
| 2′-amino-7-(6-fluoropyridin-3-yl)-2-methoxy-1,1′-dimethyl-10,11-dihydrospiro[dibenzo[a,d][7]annulene-5,4′-imidazol]-5′(1′H)-one [Example 6] | 0.108 |  |
| COc1ccc2c(c1C)CCc1ccc(-c3cccnc3F)cc1C21N=C(N)N(C)C1=O (stereo not shown) [Example 4, 2′-amino-7-(2-fluoropyridin-3-yl)-2-methoxy-1,1′-dimethyl-10,11-dihydrospiro[dibenzo[a,d][7]annulene-5,4′-imidazol]-5′(1′H)-one] | 0.063 | 153 to 155 |
| COc1cccc(-c2ccc3c(c2)C2(N=C(N)N(C)C2=O)c2ccc(OC)c(C)c2CC3)c1 (stereo not shown) [Example 9, 2′-amino-2-methoxy-7-(3-methoxyphenyl)-1,1′-dimethyl-10,11-dihydrospiro[dibenzo[a,d][7]annulene-5,4′-imidazol]-5′(1′H)-one] | 0.138 |  |
| COc1ccc2c(c1C)CCc1ccc(-c3cc(F)cc(F)c3)cc1C21N=C(N)N(C)C1=O (stereo not shown) [Example 10, 2′-amino-7-(3,5-difluorophenyl)-2-methoxy-1,1′-dimethyl-10,11-dihydrospiro[dibenzo[a,d][7]annulene-5,4′-imidazol]-5′(1′H)-one] | 0.376 | 245 to 249 |
| COc1ccc2c(c1)CCc1ccc(-c3ccccc3)cc1C21N=C(N)N(C)C1=O (stereo not shown) [Example 12, 2′-Amino-2-methoxy-1′-methyl-7-phenyl-10,11-dihydrospiro[dibenzo[a,d][7]annulene-5,4′-imidazol]-5′(1′H)-one] | 0.18 |  |

More lines, in order of falling IC50 (human BACE1), values ahead:

| IC50 (human BACE1) [µM] | melting point [°C] | Compound |
| --- | --- | --- |
| 0.25 | 155 to 195 | COc1ccc2c(c1C)CCc1ccc(-c3cc(F)ccc3F)cc1C21N=C(N)N(C)C1=O (stereo not shown) [Example 7, 2′-amino-7-(2,5-difluorophenyl)-2-methoxy-1,1′-dimethyl-10,11-dihydrospiro[dibenzo[a,d][7]annulene-5,4′-imidazol]-5′(1′H)-one] |
| 0.235 | 269 to 280 | COc1ccc2c(c1C)CCc1ccc(-c3cccc(C#N)c3)cc1C21N=C(N)N(C)C1=O (stereo not shown) [Example 8, 3-(2′-amino-8-methoxy-1′,9-dimethyl-5′-oxo-1′,5′, 10,11-tetrahydrospiro[dibenzo[a,d][7]annulene-5,4′-imidazol]-3-yl)benzonitrile] |
| 0.077 | 235 to 239 | COc1ccc2c(c1C)CCc1ccc(-c3cccnc3)cc1C21N=C(N)N(C)C1=O (stereo not shown) [Example 3, 2′-Amino-2-methoxy-1,1′-dimethyl-7-pyridin-3-yl-10,11-dihydrospiro[dibenzo[a,d][7]annulene-5,4′-imidazol]-5′(1′H)-one] |
